One test addresses recombinant human mTOR (Homo sapiens (Human), UniProt P42345). Put plainly: Test 1: mTOR ATP-binding assay based on TR-FRET. The note with it: GST-tagged truncated human mTOR, tracer-314, TR-FRET. The protocol: Test 1: mTOR ATP-Binding Assay Based on TR-FRET for Recombinant Human mTOR
2. The final volume of the assay is 10 μL and the order of addition is as follows:
50 nL of compounds dilution;
Incubated for 60 minutes at room temperature.
TR-FRET measured in Biotek Synergy2 reader at: • Excitation 340 nm/emission 665 nm • Excitation 340 nm/emission 620 nm
The following final concentrations are used:
1 nM Europium anti-GST antibody;
The following controls are used:
3. IC50 determinations may be performed as follows:
The Emission ratio is converted to percentage of inhibition for each compound concentration. IC50 values are calculated by fitting a sigmoidal dose-response curve to a plot of assay readout over compound concentration. All fits and analysis are performed with the program XLfit4 (ID Business Solutions, Guildford, UK).
A general note: In TR-FRET formats the signal depends on donor and acceptor labels being close together.

For test [1], the system named is cellular mTOR kinase activity (phosphorylation of Thr 389 of S6K1) in TSC1-/- MEFs. Put plainly: Test 2: Cellular mTOR assay (P-P70S6K T389 Surefire). It is filed as cell-based. The note with it: Mus musculus, 1 h, read-out: Test 2: T389 cellular assay IC50 (nM). The protocol: Test 2: Cellular mTOR Assay
30 μl are added per well to a 384 well-plate using a Multidrop instrument (Thermo scientific), resulting in 4000 cells/well. The plates are incubated at 37° C./5% CO2 for 20 hours (to allow for settling and adherance to the surface).
Eight 3-fold serial dilutions of test-compounds (beginning at 1.8 mM) are prepared in 90% DMSO and compiled on 384 well master plates (Greiner). A pan-pPI3K/mTOR inhibitor (0.8 mM of 8-(6-methoxy-pyridin-3-yl)-3-methyl-1-(4-piperazin-1-yl-3-trifluoromethyl-phenyl)-1,3-dihydro-imidazo[4,5-c]quinolin-2-one in 90% DMSO) is added to the wells for the low control. 90% DMSO is added to the wells for the high controls. Compounds are provided as 250 nl shots (Hummingbird) in 384 well-polypropylene microplates (compound plates). 50 μl of growth medium is added to the compound plates (dilution 1:200) with the Multidrop. After shaking (1 min at 2000 rpm), 10 μl of the first dilution is then transferred to the cell plate with a Matrix Plate Mate 2×3 pipettor (final dilution 1:4). After 1 hour of treatment, medium is removed from the plate and 20 μl of Surefire lysis buffer is added per well with the Multidrop.
Cell lysates are frozen for 15 minutes, thawed with shaking and transferred to the experimental 384 well-Proxiplate (5 μl/well) for the P-P70S6K (T389) Surefire assay (Perkin Elmer #TGR70S50). The first mix is composed of the reaction buffer (containing the specific antibody), the activation buffer and the acceptor beads (40 vol, 10 vol and 1 vol respectively). 5 μl per well is added to the lysates with a Zephyr® SPE Workstation (Caliper Life Sciences) and incubated for 2 hours with shaking at room temperature. After this incubation time, the second mix of dilution buffer and donor beads (20 vol and 1 vol respectively) is added to the plate with the same instrument (2 μl/well). After 2 hours, the plate can be read with an EnVision® Multilabel Reader (Perkin Elmer). Since the beads are light sensitive, their transfer and incubation is executed in a dark room (greenlight).
The raw data is used to generate dose response curves for test compounds and IC50 values calculated therefrom.

Another test deals with H4 mCherry-GFP-LC3 cells. Put plainly: Test 3: Autophagy assay (mCherry-GFP-LC3 reporter, high-content imaging). It is filed as cell-based, human. The note with it: Homo sapiens, 16-18 h treatment, mCherry-positive LC3 puncta/cell. The source says: Autophagy is a catabolic pathway that degrades bulk cytosol in lysosomal compartments enabling amino acids and fatty acids to be recycled. One of the key regulators of autophagy is the mammalian target of rapamycin (mTOR), a conserved serine/threonine kinase which suppresses the initiation of the autophagic process when nutrients, growth factors and energy are available. To quantify autophagy induction by mTOR inhibitors, we use a mCherry-GFP-LC3 reporter which is amenable to retroviral delivery into mammalian cells, stable expression and analysis by fluorescence microscopy.
The amino acid sequence of the mCherry-GFP-LC3 construct is shown below (SEQ ID NO: 1). The mCherry sequence is underlined, GFP sequence is in bold and LC3A sequence is boxed.
Described hereinafter is an imaging protocol and image recognition algorithm to visualize and measure changes in the autophagic pathway.
Quantification of Autophagy Using High-Content Imaging and Analysis
• 1. Day 0: Cell plating. Subconfluent H4 mCherry-GFP-LC3 cells are harvested by trypsinization, resuspended in growth medium, and counted (H4 cells: Human neuroglioma cell line (ATCC)). A cell suspension of 66′000 cells/mL is prepared and 30 μL are added into the wells of a 384-well plate using an electronic multichannel pipette. […] The cell plates are briefly spun down and placed at 37° C. and 5% CO2. • 2. Day 1: Compound treatment. Compound dose responses are prepared in DMSO. The dose responses are then diluted 1:50 in medium. 10 ul of the diluted compound is added to 30 ul of cells, yielding a final 1:200 dilution of the original compound and final of 0.5% DMSO. Compound-treatments are performed in triplicates. The 384-well plates are placed at 37° C. and 5% CO2. Compound treatment is performed for 16-18 h (see Note 1). • 3. Day 2: Cell fixation. Cells are fixed by adding 10 μL/well 5× concentrated Mirsky's fixative supplemented with 25 μg/mL Hoechst33342. […] The 384-well plate is briefly spun down and incubated for 1 h at room temperature. Cells are then washed using a 384-well plate washer using a protocol which aspirates the volume down to 10 μL/well before dispensing 100 μL/well 1×TBS. Aspiration and dispensing steps are repeated 4 times and a final volume of 100 μL/well is left. The plate is sealed using an adhesive PCR foil. • 4. Imaging. The bottom of the plate is cleaned with 70% ethanol and then imaged using the InCell 1000 automated epifluorescence microscope. 20× magnification is used and 4 different areas (fields) are imaged per well, this typically captures a total of around 400 cells per well. Hoechst33342 images are acquired using an excitation of 360 nm (D360_40x filter), an emission of 460 nm (HQ460_40M filter) and an exposure time of 150 ms. GFP images are acquired using an excitation of 475 nm (S475_20x filter), an emission of 535 nm (HQ535_50M filter) and an exposure time of 1 s. mCherry images are acquired using an excitation of 535 nm (HQ535_50x filter), an emission of 620 nm (HQ620_60M filter) and an exposure time of 1 s. A quadruple band pass mirror is used for all images. • 5. Image analysis. The InCell Analysis software is used to analyze the images using the Multi Target Analysis algorithm. First, nuclei are detected in the Hoechst33342 image using top-hat segmentation and a minimal nuclear area of 50 μm^2. Cells are defined using a collar of 10 μm around the nuclei. Second, puncta (organelles) are identified in the mCherry image inside the cells using multi-top-hat segmentation. Third, the mask of the mCherry puncta is transferred onto the GFP image. Fourth, the GFP fluorescence intensity inside the mCherry puncta mask is measured (reference intensity). • 6. The ‘organelles’ parameter reflects mCherry-positive puncta of the mCherry-GFP-LC3 reporter and is used to calculate ‘LC3 puncta/cell’. […]

As a reminder, the IC50 is the concentration at which inhibition is half-maximal. A word on the EC50: it is the concentration at which the effect is half-maximal.

Chain of recombinant human mTOR (P42345 1360-2549): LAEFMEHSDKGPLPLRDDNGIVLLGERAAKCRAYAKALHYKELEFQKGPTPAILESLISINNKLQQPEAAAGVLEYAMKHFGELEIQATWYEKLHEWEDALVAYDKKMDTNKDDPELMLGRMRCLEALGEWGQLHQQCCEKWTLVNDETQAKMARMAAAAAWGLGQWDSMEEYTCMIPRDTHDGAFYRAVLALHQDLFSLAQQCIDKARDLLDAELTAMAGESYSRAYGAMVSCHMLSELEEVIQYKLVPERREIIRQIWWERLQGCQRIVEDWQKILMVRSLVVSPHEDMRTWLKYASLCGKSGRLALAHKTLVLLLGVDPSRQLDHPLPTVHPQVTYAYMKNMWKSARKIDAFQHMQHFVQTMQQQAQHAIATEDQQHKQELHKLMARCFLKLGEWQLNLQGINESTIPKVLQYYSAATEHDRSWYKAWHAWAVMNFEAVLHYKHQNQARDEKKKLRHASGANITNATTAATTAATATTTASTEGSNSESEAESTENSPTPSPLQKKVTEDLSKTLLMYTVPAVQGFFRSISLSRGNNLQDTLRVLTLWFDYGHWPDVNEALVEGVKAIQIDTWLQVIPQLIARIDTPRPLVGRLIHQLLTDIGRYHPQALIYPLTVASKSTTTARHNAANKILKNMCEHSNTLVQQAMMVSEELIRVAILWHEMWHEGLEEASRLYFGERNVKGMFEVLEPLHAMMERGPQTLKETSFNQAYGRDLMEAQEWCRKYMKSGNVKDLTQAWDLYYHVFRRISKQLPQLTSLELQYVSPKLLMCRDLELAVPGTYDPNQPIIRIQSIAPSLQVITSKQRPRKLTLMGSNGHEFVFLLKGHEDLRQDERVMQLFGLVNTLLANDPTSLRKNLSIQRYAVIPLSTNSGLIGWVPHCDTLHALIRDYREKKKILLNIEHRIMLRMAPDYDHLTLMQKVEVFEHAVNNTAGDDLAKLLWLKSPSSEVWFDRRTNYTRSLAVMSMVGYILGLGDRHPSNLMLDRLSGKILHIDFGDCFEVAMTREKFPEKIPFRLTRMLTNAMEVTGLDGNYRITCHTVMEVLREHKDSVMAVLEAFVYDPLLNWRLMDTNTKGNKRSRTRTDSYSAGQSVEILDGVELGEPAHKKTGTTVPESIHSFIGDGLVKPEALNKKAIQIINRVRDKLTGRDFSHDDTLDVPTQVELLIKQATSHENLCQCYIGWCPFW

On to `COc1cc(-c2nc3c(N4CCOC[C@H]4C)nc(N4CCOC[C@@H]4C)nc3[nH]2)c2cc[nH]c2c1` [Example 31, 8-(6-Methoxy-1H-indol-4-yl)-2-((S)-3-methyl-morpholin-4-yl)-6-((R)-3-methyl-morpholin-4-yl)-9H-purine], for which the IC50 at recombinant human mTOR was 28 nM; in test [1], 71 nM. This compound displayed an EC50 in the test with H4 mCherry-GFP-LC3 cells of 145 nM.

As for `COC(=O)c1cc(-c2nc3c(N4CCOC[C@H]4C)nc(N4CCOC[C@H]4C)nc3[nH]2)c2cc[nH]c2c1` [Example 32, 4-[2,6-Bis-((R)-3-methyl-morpholin-4-yl)-9H-purin-8-yl]-1H-indole-6-carboxylic acid methyl ester], the results for the IC50 (on recombinant human mTOR; in test [1]) were 533 nM and 1120 nM, respectively. The EC50 in the test with H4 mCherry-GFP-LC3 cells is greater than 6000 nM.

(Values after US9334271B2, “Purine derivatives and their use in the treatment of disease” (Novarits AG, priority 2012, dated 2016).)
